Patent US12187773B2, “Modified GIP peptide analogues” (Antag Therapeutics ApS, priority 2018, dated 2025)
Where a SMILES comes first, the peptide text is derived from it. [ ]: non-standard residue; d: D form. The star is where a group is joined. C18 diacid = O=C(O)CCCCCCCCCCCCCCCCC(=O)*; C16 diacid = O=C(O)CCCCCCCCCCCCCCC(=O)*; pGlu = O=C1CC[C@@H](C(=O)O)N1

Tests used:
Type in all cases: cell-based
[1] = biological target: T1, human GIP receptor (Homo sapiens, UniProt P48546); test: cAMP agonism (CisBio cAMP Dynamic 2 HTRF assay); settings: for Emax: HEK293, read-out: cAMP agonism, % Efficacy, Table 1C, HEK-293 cells
T1 sequence (P48546 22-466): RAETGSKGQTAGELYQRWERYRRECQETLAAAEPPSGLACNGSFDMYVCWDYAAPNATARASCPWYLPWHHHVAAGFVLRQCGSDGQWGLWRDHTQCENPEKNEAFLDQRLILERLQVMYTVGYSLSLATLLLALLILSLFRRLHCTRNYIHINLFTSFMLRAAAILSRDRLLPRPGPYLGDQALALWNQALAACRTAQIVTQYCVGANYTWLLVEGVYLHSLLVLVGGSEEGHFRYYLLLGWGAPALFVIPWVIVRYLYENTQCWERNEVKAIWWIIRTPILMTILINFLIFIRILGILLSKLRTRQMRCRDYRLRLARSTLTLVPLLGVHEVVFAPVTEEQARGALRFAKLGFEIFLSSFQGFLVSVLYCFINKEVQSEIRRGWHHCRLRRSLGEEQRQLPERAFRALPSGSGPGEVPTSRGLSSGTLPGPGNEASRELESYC
Description: To test for agonistic properties at the GIP receptor, compounds were diluted and added to cells as described above and incubated for 30 min at 37° C. The resulting increase in intracellular cAMP was determined using the CisBio cAMP Dynamic 2 HTRF Assay Kit as described above.

[2] = biological target: T1, human GIP receptor; test: cAMP accumulation, agonism (DiscoveRx HitHunter cAMP XS assay); set-up: host or cells: COS-7 (transient, calcium phosphate; pCMV-Script vector); settings: for cAMP agonism, Emax: Table 1B, DiscoveRx, COS-7 cells; for Emax: COS-7, read-out: cAMP agonism, Emax
In short: (§1)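 cAMP accumulation measured by HitHunter cAMP XS in COS-7 cells transiently expressing human GIP receptor, after 30 min in HBS with 1 mM IBMX at 37 °C. Antagonists preincubated 10 min before GIP giving 50-80% of maximum, then 20 min more; agonist mode used 30 min ligand exposure.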

[3] = biological target: T1, human GIP receptor; test: cAMP antagonism (CisBio cAMP Dynamic 2 HTRF assay); set-up: pCMV-Script vector; settings: Table 1C, CisBio, HEK-293 cells; for IC50: cAMP antagonism, nM (IC50), agonist GIP1-42 at EC50
In short: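 Four-parameter fits of cAMP dose-response gave pIC50. cAMP fall was quantified by HTRF competition, ratio 665/620 nm after 60 min at room temperature, against a cAMP standard curve.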

[4] = biological target: T1, human GIP receptor; test: cAMP accumulation, antagonism (DiscoveRx HitHunter cAMP XS assay); set-up: host or cells: COS-7 (transient, calcium phosphate; pCMV-Script vector); settings: Table 1B, DiscoveRx; for cAMP antagonism, % inhib: COS-7 cells, % inhibition of Emax; for IC50: cAMP antagonism, nM (IC50), transiently transfected COS-7 cells
In short: as §1

SMILES	Emax [1] [%]	cAMP agonism, Emax [2]	cAMP antagonism, % inhib [3] [%]	cAMP antagonism, % inhib [4] [%]	IC50 [4] [nM]	IC50 [3] [nM]	cAMP agonism, % Efficacy ([1]; Table 1C, HEK-293 cells) [%]	Emax [2] [%]
CC[C@H](C)[C@H](NC(=O)[C@H](CO)NC(=O)[C@H](Cc1ccc(O)cc1)NC(=O)[C@H](CC(=O)O)NC(=O)[C@H](CO)NC(=O)[C@@H](NC(=O)[C@H](Cc1ccccc1)NC(=O)[C@@H](NC(=O)CNC(=O)[C@@H]1CCC(=O)N1)[C@@H](C)O)[C@@H](C)CC)C(=O)N[C@@H](C)C(=O)N[C@@H](CCSC)C(=O)N[C@@H](CC(=O)O)C(=O)N[C@@H](CCCNC(=N)N)C(=O)N[C@H](C(=O)N[C@@H](CCCCNC(=O)CCCCCCCCCCCCCCCCC(=O)O)C(=O)N[C@@H](CCC(N)=O)C(=O)N[C@@H](CCC(N)=O)C(=O)N[C@@H](CC(=O)O)C(=O)N[C@@H](Cc1ccccc1)C(=O)N[C@H](C(=O)N[C@@H](CC(N)=O)C(=O)N[C@@H](Cc1c[nH]c2ccccc12)C(=O)N[C@@H](CC(C)C)C(=O)N[C@@H](CC(C)C)C(=O)N[C@@H](C)C(=O)N[C@@H](CCC(N)=O)C(=O)N[C@@H](CCCNC(=N)N)C(N)=O)C(C)C)[C@@H](C)CC [AT391] ([pGlu]GTFISDYSIAMDRIK(C18 diacid)QQDFVNWLLAQR-NH2)	0	No Agonism	95	100	10			
CC[C@H](C)[C@H](NC(=O)[C@H](CO)NC(=O)[C@H](Cc1ccc(O)cc1)NC(=O)[C@H](CC(=O)O)NC(=O)[C@H](CO)NC(=O)[C@@H](NC(=O)[C@H](Cc1ccccc1)NC(=O)[C@@H](NC(=O)CNC(=O)CN)[C@@H](C)O)[C@@H](C)CC)C(=O)N[C@@H](C)C(=O)N[C@@H](CCSC)C(=O)N[C@@H](CC(=O)O)C(=O)N[C@@H](CCCNC(=N)N)C(=O)N[C@H](C(=O)N[C@@H](CCCCNC(=O)CCCCCCCCCCCCCCC(=O)O)C(=O)N[C@@H](CCC(N)=O)C(=O)N[C@@H](CCC(N)=O)C(=O)N[C@@H](CC(=O)O)C(=O)N[C@@H](Cc1ccccc1)C(=O)N[C@H](C(=O)N[C@@H](CC(N)=O)C(=O)N[C@@H](Cc1c[nH]c2ccccc12)C(=O)N[C@@H](CC(C)C)C(=O)N[C@@H](CC(C)C)C(=O)N[C@@H](C)C(=O)N[C@@H](CCC(N)=O)C(=O)N[C@@H](CCCNC(=N)N)C(N)=O)C(C)C)[C@@H](C)CC [AT496] (H-GGTFISDYSIAMDRIK(C16 diacid)QQDFVNWLLAQR-NH2; N-terminus assumed)	0	No Agonism	100	100	12	39.8		
CC[C@H](C)[C@H](NC(=O)[C@H](CO)NC(=O)[C@H](Cc1ccc(O)cc1)NC(=O)[C@H](CC(=O)O)NC(=O)[C@H](CO)NC(=O)[C@@H](NC(=O)[C@H](Cc1ccccc1)NC(=O)[C@@H](NC(=O)CNC(=O)[C@@H](N)CO)[C@@H](C)O)[C@@H](C)CC)C(=O)N[C@@H](C)C(=O)N[C@@H](CCSC)C(=O)N[C@@H](CC(=O)O)C(=O)N[C@@H](CCCNC(=N)N)C(=O)N[C@H](C(=O)N[C@@H](CCCCNC(=O)CCCCCCCCCCCCCCC(=O)O)C(=O)N[C@@H](CCC(N)=O)C(=O)N[C@@H](CCC(N)=O)C(=O)N[C@@H](CC(=O)O)C(=O)N[C@@H](Cc1ccccc1)C(=O)N[C@H](C(=O)N[C@@H](CC(N)=O)C(=O)N[C@@H](Cc1c[nH]c2ccccc12)C(=O)N[C@@H](CC(C)C)C(=O)N[C@@H](CC(C)C)C(=O)N[C@@H](C)C(=O)N[C@@H](CCC(N)=O)C(=O)N[C@@H](CCCNC(=N)N)C(N)=O)C(C)C)[C@@H](C)CC [AT498] (H-SGTFISDYSIAMDRIK(C16 diacid)QQDFVNWLLAQR-NH2; N-terminus assumed)			85	95	21	13.2	5	6
CC[C@H](C)[C@H](NC(=O)[C@H](CO)NC(=O)[C@H](Cc1ccc(O)cc1)NC(=O)[C@H](CC(=O)O)NC(=O)[C@H](CO)NC(=O)[C@@H](NC(=O)[C@H](Cc1ccccc1)NC(=O)[C@@H](NC(=O)CNC(=O)[C@@H]1CCCN1)[C@@H](C)O)[C@@H](C)CC)C(=O)N[C@@H](C)C(=O)N[C@@H](CCSC)C(=O)N[C@@H](CC(=O)O)C(=O)N[C@@H](CCCNC(=N)N)C(=O)N[C@H](C(=O)N[C@@H](CCCCNC(=O)CCCCCCCCCCCCCCC(=O)O)C(=O)N[C@@H](CCC(N)=O)C(=O)N[C@@H](CCC(N)=O)C(=O)N[C@@H](CC(=O)O)C(=O)N[C@@H](Cc1ccccc1)C(=O)N[C@H](C(=O)N[C@@H](CC(N)=O)C(=O)N[C@@H](Cc1c[nH]c2ccccc12)C(=O)N[C@@H](CC(C)C)C(=O)N[C@@H](CC(C)C)C(=O)N[C@@H](C)C(=O)N[C@@H](CCC(N)=O)C(=O)N[C@@H](CCCNC(=N)N)C(N)=O)C(C)C)[C@@H](C)CC [AT500] (H-PGTFISDYSIAMDRIK(C16 diacid)QQDFVNWLLAQR-NH2; N-terminus assumed)	4	No Agonism	77	90		66.8		
CC[C@H](C)[C@H](NC(=O)[C@H](CO)NC(=O)[C@H](Cc1ccc(O)cc1)NC(=O)[C@H](CC(=O)O)NC(=O)[C@H](CO)NC(=O)[C@@H](NC(=O)[C@H](Cc1ccccc1)NC(=O)[C@@H](NC(=O)CNC(=O)CN)[C@@H](C)O)[C@@H](C)CC)C(=O)N[C@@H](C)C(=O)N[C@@H](CCSC)C(=O)N[C@@H](CC(=O)O)C(=O)N[C@@H](CCCNC(=N)N)C(=O)N[C@H](C(=O)N[C@@H](CCCCNC(=O)CC[C@H](NC(=O)CCCCCCCCCCCCCCC(=O)O)C(=O)O)C(=O)N[C@@H](CCC(N)=O)C(=O)N[C@@H](CCC(N)=O)C(=O)N[C@@H](CC(=O)O)C(=O)N[C@@H](Cc1ccccc1)C(=O)N[C@H](C(=O)N[C@@H](CC(N)=O)C(=O)N[C@@H](Cc1c[nH]c2ccccc12)C(=O)N[C@@H](CC(C)C)C(=O)N[C@@H](CC(C)C)C(=O)N[C@@H](C)C(=O)N[C@@H](CCC(N)=O)C(=O)N[C@@H](CCCNC(=N)N)C(N)=O)C(C)C)[C@@H](C)CC [AT502] (HELM PEPTIDE1{G.G.T.F.I.S.D.Y.S.I.A.M.D.R.I.K.Q.Q.D.F.V.N.W.L.L.A.Q.R.[am]}|PEPTIDE2{[O=C(O)CCCCCCCCCCCCCCC(=O)[*:2]].[gGlu]}$PEPTIDE1,PEPTIDE2,16:R3-2:R2$$$V2.0; N-terminus assumed)	13		65	85	52			5
CC[C@H](C)[C@H](NC(=O)[C@H](CO)NC(=O)[C@H](Cc1ccc(O)cc1)NC(=O)[C@H](CC(=O)O)NC(=O)[C@H](CO)NC(=O)[C@@H](NC(=O)[C@H](Cc1ccccc1)NC(=O)[C@@H](NC(=O)CNC(=O)[C@@H](N)CO)[C@@H](C)O)[C@@H](C)CC)C(=O)N[C@@H](C)C(=O)N[C@@H](CCSC)C(=O)N[C@@H](CC(=O)O)C(=O)N[C@@H](CCCNC(=N)N)C(=O)N[C@H](C(=O)N[C@@H](CCCCNC(=O)CC[C@H](NC(=O)CCCCCCCCCCCCCCC(=O)O)C(=O)O)C(=O)N[C@@H](CCC(N)=O)C(=O)N[C@@H](CCC(N)=O)C(=O)N[C@@H](CC(=O)O)C(=O)N[C@@H](Cc1ccccc1)C(=O)N[C@H](C(=O)N[C@@H](CC(N)=O)C(=O)N[C@@H](Cc1c[nH]c2ccccc12)C(=O)N[C@@H](CC(C)C)C(=O)N[C@@H](CC(C)C)C(=O)N[C@@H](C)C(=O)N[C@@H](CCC(N)=O)C(=O)N[C@@H](CCCNC(=N)N)C(N)=O)C(C)C)[C@@H](C)CC [AT504] (HELM PEPTIDE1{S.G.T.F.I.S.D.Y.S.I.A.M.D.R.I.K.Q.Q.D.F.V.N.W.L.L.A.Q.R.[am]}|PEPTIDE2{[O=C(O)CCCCCCCCCCCCCCC(=O)[*:2]].[gGlu]}$PEPTIDE1,PEPTIDE2,16:R3-2:R2$$$V2.0; N-terminus assumed)	0	No Agonism	85	90	21	39.8		
